# Reference: patent US10130693B2, “Peptides, combination of peptides and scaffolds for use in immunotherapeutic treatment of various cancers” (Immatics Biotechnologies GmbH, priority 2015, dated 2018)
# System: HLA-A*24
# Assay: MHC binding assay, UV-ligand exchange with beta2m ELISA (exchange yield), HLA-A*24
# Set-up: species or system human
# Conditions: binding to HLA-A*24, UV-ligand exchange
# Excerpt: Candidate peptides for T cell based therapies according to the present invention were further tested for their MHC binding capacity (affinity). The individual peptide-MHC complexes were produced by UV-ligand exchange, where a UV-sensitive peptide is cleaved upon UV-irradiation, and exchanged with the peptide of interest as analyzed. Only peptide candidates that can effectively bind and stabilize the peptide-receptive MHC molecules prevent dissociation of the MHC complexes. To determine the yield of the exchange reaction, an ELISA was performed based on the detection of the light chain (β2m) of stabilized MHC complexes. The assay was performed as generally described in Rodenko et al. (Rodenko et al., 2006).
# 96 well MAXISorp plates (NUNC) were coated over night with 2 ug/ml streptavidin in PBS at room temperature, washed 4× and blocked for 1 h at 37° C. in 2% BSA containing blocking buffer. […] Peptide-MHC monomers of the UV-exchange reaction were diluted 100 fold in blocking buffer. Samples were incubated for 1 h at 37° C., washed four times, incubated with 2 ug/ml HRP conjugated anti-β2m for 1h at 37° C., washed again and detected with TMB solution that is stopped with […]. Absorption was measured at 450 nm. Candidate peptides that show a high exchange yield (preferably higher than 50%, most preferred higher than 75%) are generally preferred for a generation and production of antibodies or fragments thereof, and/or T cell receptors or fragments thereof, as they show sufficient avidity to the MHC molecules and prevent dissociation of the MHC complexes.
row,Substance,"Peptide exchange (MHC class I binding score, peptide exchange yield)"
1,267 (SFLNIEKTEILF; listed as Homo sapiens) [compound 267],++ (20%-49% = ++)
2,268 (IFITKALQI; listed as Homo sapiens) [compound 268],++ (20%-49% = ++)
3,269 (QYPYLQAFF; listed as Homo sapiens) [compound 269],+++ (50%-75% = +++)
4,270 (YYSQESKVLYL; listed as Homo sapiens) [compound 270],+++ (50%-75% = +++)
5,271 (RFLMKSYSF; listed as Homo sapiens) [compound 271],++++ (>=75% = ++++)
6,272 (RYVFPLPYL; listed as Homo sapiens) [compound 272],++++ (>=75% = ++++)
7,273 (IYGEKLQFIF; listed as Homo sapiens) [compound 273],+++ (50%-75% = +++)
8,274 (KQLDIANYELF; listed as Homo sapiens) [compound 274],++++ (>=75% = ++++)
9,275 (KYGTLDVTF; listed as Homo sapiens) [compound 275],++++ (>=75% = ++++)
10,276 (QYLDVLHAL; listed as Homo sapiens) [compound 276],++++ (>=75% = ++++)
11,279 (VWLPASVLF; listed as Homo sapiens) [compound 279],+++ (50%-75% = +++)
12,280 (TYNPNLQDKL; listed as Homo sapiens) [compound 280],++++ (>=75% = ++++)
13,281 (NYSPGLVSLIL; listed as Homo sapiens) [compound 281],+++ (50%-75% = +++)
14,282 (NYLVDPVTI; listed as Homo sapiens) [compound 282],+++ (50%-75% = +++)
15,283 (EYQEIFQQL; listed as Homo sapiens) [compound 283],+++ (50%-75% = +++)
16,284 (DYLKDPVTI; listed as Homo sapiens) [compound 284],+++ (50%-75% = +++)
17,285 (VYVGDALLHAI; listed as Homo sapiens) [compound 285],+++ (50%-75% = +++)
18,286 (SYGTILSHI; listed as Homo sapiens) [compound 286],++++ (>=75% = ++++)
19,287 (IYNPNLLTASKF; listed as Homo sapiens) [compound 287],+++ (50%-75% = +++)

row,Substance,"Peptide exchange (MHC class I binding score, peptide exchange yield)"
1,288 (VYPDTVALTF; listed as Homo sapiens) [compound 288],++ (20%-49% = ++)
2,289 (FFHEGQYVF; listed as Homo sapiens) [compound 289],++++ (>=75% = ++++)
3,290 (KYGDFKLLEF; listed as Homo sapiens) [compound 290],++++ (>=75% = ++++)
4,291 (YYLGSGRETF; listed as Homo sapiens) [compound 291],+++ (50%-75% = +++)
5,292 (FYPQIINTF; listed as Homo sapiens) [compound 292],++++ (>=75% = ++++)
6,293 (VYPHFSTTNLI; listed as Homo sapiens) [compound 293],++++ (>=75% = ++++)
7,294 (RFPVQGTVTF; listed as Homo sapiens) [compound 294],+++ (50%-75% = +++)
8,295 (SYLVIHERI; listed as Homo sapiens) [compound 295],+++ (50%-75% = +++)
9,296 (SYQVIFQHF; listed as Homo sapiens) [compound 296],++++ (>=75% = ++++)
10,297 (TYIDTRTVF; listed as Homo sapiens) [compound 297],++++ (>=75% = ++++)
11,298 (AYKSEVVYF; listed as Homo sapiens) [compound 298],++++ (>=75% = ++++)
12,299 (KYQYVLNEF; listed as Homo sapiens) [compound 299],+++ (50%-75% = +++)
13,300 (TYPSQLPSL; listed as Homo sapiens) [compound 300],+++ (50%-75% = +++)
14,301 (KFDDVTMLF; listed as Homo sapiens) [compound 301],++++ (>=75% = ++++)
15,302 (LYLPVHYGF; listed as Homo sapiens) [compound 302],+++ (50%-75% = +++)
16,303 (LYSVIKEDF; listed as Homo sapiens) [compound 303],+++ (50%-75% = +++)
17,304 (EYNEVANLF; listed as Homo sapiens) [compound 304],+++ (50%-75% = +++)
18,305 (NYENKQYLF; listed as Homo sapiens) [compound 305],++++ (>=75% = ++++)
19,306 (VYPAEQPQI; listed as Homo sapiens) [compound 306],+++ (50%-75% = +++)

row,Substance,"Peptide exchange (MHC class I binding score, peptide exchange yield)"
1,307 (GYAFTLPLF; listed as Homo sapiens) [compound 307],+++ (50%-75% = +++)
2,308 (TFDGHGVFF; listed as Homo sapiens) [compound 308],+++ (50%-75% = +++)
3,309 (KYYRQTLLF; listed as Homo sapiens) [compound 309],++ (20%-49% = ++)
4,310 (IYAPTLLVF; listed as Homo sapiens) [compound 310],+++ (50%-75% = +++)
5,311 (EYLQNLNHI; listed as Homo sapiens) [compound 311],++++ (>=75% = ++++)
6,312 (SYTSVLSRL; listed as Homo sapiens) [compound 312],+++ (50%-75% = +++)
7,313 (KYTHFIQSF; listed as Homo sapiens) [compound 313],++++ (>=75% = ++++)
8,314 (RYFKGDYSI; listed as Homo sapiens) [compound 314],+++ (50%-75% = +++)
9,315 (FYIPHVPVSF; listed as Homo sapiens) [compound 315],+++ (50%-75% = +++)
10,316 (VYFEGSDFKF; listed as Homo sapiens) [compound 316],+++ (50%-75% = +++)
11,317 (VFDTSIAQLF; listed as Homo sapiens) [compound 317],+++ (50%-75% = +++)
12,318 (TYSNSAFQYF; listed as Homo sapiens) [compound 318],+++ (50%-75% = +++)
13,319 (KYSDVKNLI; listed as Homo sapiens) [compound 319],++++ (>=75% = ++++)
14,341 (SYLTQHQRI; listed as Homo sapiens) [compound 341],+++ (50%-75% = +++)
15,342 (NYAFLHRTL; listed as Homo sapiens) [compound 342],+++ (50%-75% = +++)
16,343 (NYLGGTSTI; listed as Homo sapiens) [compound 343],+++ (50%-75% = +++)
17,347 (VYAEVNSL; listed as Homo sapiens) [compound 347],+++ (50%-75% = +++)
18,348 (IYLEHTESI; listed as Homo sapiens) [compound 348],+++ (50%-75% = +++)
19,352 (QYGGDLTNTF; listed as Homo sapiens) [compound 352],+++ (50%-75% = +++)
